ChEMBL document CHEMBL1201862, “PubChem BioAssay data set” (2004)
Calls of active or inactive are those of the source. Cut-off read from the data, not from the text of the source, for most assays here: actives have a measured EC50 and inactives only a lower limit.

Legend:
[1] = Luminescence Cell-Based Dose Confirmation HTS to Identify Inhibitors of Platelet Dense Granule Release. [Related pubchem assays: 1663 (Primary HTS), 1678 (Summary of Project)]; type: functional
[2] = target: Luciferin 4-monooxygenase (Photinus pyralis, UniProt P08659); assay: inhibition of purified Photinus pyralis luciferase – biochemical, luminescence, dose response (AID 1891)
Sequence of Luciferin 4-monooxygenase (P08659 whole entry): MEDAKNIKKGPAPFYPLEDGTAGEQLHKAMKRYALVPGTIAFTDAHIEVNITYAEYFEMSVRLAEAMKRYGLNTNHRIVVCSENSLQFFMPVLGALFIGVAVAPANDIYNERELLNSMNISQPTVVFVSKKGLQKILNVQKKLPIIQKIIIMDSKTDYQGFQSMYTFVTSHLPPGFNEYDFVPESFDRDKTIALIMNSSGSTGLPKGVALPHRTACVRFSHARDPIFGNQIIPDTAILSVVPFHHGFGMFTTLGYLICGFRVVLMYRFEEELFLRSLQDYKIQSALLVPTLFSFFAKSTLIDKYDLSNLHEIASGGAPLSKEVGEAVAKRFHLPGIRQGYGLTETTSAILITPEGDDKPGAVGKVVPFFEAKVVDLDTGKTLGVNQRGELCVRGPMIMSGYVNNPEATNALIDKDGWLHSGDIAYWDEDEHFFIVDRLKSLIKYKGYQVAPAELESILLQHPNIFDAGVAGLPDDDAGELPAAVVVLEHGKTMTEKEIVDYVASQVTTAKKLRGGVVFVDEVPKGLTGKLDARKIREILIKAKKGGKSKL

[3] = target: T1, Streptokinase A (Streptococcus pyogenes serotype M1, UniProt P10520); assay: viability-normalized secreted streptokinase activity reduction – plasminogen activation absorbance, OD405, dose response (AID 1914); type: functional, Streptococcus pyogenes M1 GAS;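 note: secreted streptokinase activity via plasminogen activation per viability signal from cell pellet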
T1 sequence (P10520 whole entry): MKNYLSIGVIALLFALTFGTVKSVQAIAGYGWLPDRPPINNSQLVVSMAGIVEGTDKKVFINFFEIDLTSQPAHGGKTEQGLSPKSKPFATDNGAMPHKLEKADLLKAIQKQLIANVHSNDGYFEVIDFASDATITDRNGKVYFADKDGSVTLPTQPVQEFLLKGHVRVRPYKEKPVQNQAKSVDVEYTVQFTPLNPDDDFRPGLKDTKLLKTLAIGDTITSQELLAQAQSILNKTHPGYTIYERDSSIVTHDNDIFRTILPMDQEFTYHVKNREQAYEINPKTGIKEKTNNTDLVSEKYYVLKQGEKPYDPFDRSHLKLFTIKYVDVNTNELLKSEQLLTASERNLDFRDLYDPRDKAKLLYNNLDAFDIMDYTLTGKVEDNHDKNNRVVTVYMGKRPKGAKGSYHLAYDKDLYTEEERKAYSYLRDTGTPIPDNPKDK

[4] = tested on: Streptococcus; assay: GAS UMAA2166 growth inhibition – luminescence, BacTiterGlo, counter-screen for streptokinase expression inhibitor project, dose response (AID 1915); type: functional, organism-based;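 note: potency for reduction of bacterial viability or growth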
[5] = target: T2, RNA-binding protein pos-1 (Caenorhabditis elegans, UniProt G5EF15); assay: disruptors of C. elegans POS-1 RNA interaction – biochemical, fluorescence polarization, dose response (AID 1964);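 note: purified POS-1 fused to maltose binding protein made in E. coli; potency of compounds blocking POS-1 binding to fluorescent RNA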
T2 sequence (G5EF15 whole entry): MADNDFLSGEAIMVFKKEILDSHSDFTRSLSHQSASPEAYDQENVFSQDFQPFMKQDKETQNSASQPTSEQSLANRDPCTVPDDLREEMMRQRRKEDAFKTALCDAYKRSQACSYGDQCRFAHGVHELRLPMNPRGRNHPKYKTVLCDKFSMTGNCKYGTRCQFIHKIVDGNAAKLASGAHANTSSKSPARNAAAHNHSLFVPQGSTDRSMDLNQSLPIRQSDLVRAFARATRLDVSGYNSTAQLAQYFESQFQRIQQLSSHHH

[6] = tested on: Streptococcus sp. 'group A'; assay: Streptococcus pyogenes SK(-)GAS viability under kanamycin – luminescence, BacTiterGlo, confirmation, counter-screen for streptokinase expression inhibitor project, dose response (AID 1900); type: functional, organism-based
[7] = target: T3, Zinc finger protein mex-5 (Caenorhabditis elegans, UniProt Q9XUB2); assay: potency of MEX-5 RNA-binding blockers – biochemical, C. elegans, fluorescence polarization, dose response (AID 1960)
T3 sequence (Q9XUB2 whole entry): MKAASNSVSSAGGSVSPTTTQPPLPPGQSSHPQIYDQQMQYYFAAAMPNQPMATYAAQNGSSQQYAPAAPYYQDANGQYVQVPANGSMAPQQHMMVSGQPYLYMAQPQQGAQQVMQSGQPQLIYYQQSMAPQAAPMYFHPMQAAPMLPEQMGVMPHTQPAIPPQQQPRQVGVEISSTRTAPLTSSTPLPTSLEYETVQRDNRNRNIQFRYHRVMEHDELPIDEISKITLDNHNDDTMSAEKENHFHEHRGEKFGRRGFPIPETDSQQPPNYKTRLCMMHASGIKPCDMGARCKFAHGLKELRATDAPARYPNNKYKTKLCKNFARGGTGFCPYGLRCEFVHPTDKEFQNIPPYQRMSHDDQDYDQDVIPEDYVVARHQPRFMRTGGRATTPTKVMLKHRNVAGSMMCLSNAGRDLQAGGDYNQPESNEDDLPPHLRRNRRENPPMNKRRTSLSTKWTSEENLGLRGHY

[8] = target: Genome polyprotein (dengue virus type 2, UniProt P29990); assay: flavivirus cap methylation enzyme inhibition – biochemical, confirmation dose response, primary screen (AID 588689); type: functional
Sequence of Genome polyprotein (P29990 2492-3391 limits assumed): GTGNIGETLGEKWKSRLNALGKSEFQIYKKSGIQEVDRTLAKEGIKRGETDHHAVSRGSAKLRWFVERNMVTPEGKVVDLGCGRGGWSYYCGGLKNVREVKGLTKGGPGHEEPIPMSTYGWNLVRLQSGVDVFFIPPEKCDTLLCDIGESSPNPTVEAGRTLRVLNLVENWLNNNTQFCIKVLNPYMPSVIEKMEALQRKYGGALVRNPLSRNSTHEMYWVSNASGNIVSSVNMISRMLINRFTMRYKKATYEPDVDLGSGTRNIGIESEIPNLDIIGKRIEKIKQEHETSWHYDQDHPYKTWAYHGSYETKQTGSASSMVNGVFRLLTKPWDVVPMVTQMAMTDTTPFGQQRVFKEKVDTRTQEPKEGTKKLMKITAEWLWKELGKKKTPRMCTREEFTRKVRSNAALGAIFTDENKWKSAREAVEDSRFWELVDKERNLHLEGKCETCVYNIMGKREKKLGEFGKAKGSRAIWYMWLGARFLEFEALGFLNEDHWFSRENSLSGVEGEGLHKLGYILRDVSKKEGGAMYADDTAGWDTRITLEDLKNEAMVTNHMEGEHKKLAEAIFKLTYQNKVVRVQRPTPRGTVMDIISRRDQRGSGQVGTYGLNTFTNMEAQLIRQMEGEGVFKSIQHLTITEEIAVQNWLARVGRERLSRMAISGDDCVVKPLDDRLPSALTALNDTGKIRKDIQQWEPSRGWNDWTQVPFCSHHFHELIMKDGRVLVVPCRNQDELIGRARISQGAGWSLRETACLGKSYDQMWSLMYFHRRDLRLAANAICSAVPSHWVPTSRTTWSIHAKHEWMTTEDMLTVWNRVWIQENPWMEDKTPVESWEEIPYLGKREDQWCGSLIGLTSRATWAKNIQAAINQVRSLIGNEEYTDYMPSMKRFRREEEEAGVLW

[9] = target: FAD-linked sulfhydryl oxidase ALR (Homo sapiens, UniProt P55789); assay: ALR-catalysed DTT oxidation blockers – biochemical, H2O2 detection, luminescence, cherry-pick, dose response (AID 493248)
Sequence of FAD-linked sulfhydryl oxidase ALR (P55789 whole entry): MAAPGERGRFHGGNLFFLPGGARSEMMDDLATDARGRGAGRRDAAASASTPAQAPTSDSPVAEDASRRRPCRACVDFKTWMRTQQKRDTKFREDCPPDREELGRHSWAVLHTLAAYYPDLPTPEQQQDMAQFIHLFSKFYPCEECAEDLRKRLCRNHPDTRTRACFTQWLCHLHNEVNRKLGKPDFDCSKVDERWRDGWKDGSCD

[10] = tested on: BJ; assay: BJ-TERT fibroblast viability loss – cell-based, RAS-independent, luminescence, dose response (AID 1933); type: functional; settings: Homo sapiens
[11] = tested on: BJ; assay: BJ-TERT-LT-ST fibroblast viability loss – cell-based, RAS-independent, luminescence, dose response (AID 1935); type: functional; settings: Homo sapiens;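 note: BJ fibroblasts immortalized with TERT plus LT and ST oncogenes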
[12] = target: Cytochrome P450 2D6 (Homo sapiens, UniProt P10635);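 note: CYP2D6 member of a cytochrome P450 panel assay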
Sequence of Cytochrome P450 2D6 (P10635 whole entry): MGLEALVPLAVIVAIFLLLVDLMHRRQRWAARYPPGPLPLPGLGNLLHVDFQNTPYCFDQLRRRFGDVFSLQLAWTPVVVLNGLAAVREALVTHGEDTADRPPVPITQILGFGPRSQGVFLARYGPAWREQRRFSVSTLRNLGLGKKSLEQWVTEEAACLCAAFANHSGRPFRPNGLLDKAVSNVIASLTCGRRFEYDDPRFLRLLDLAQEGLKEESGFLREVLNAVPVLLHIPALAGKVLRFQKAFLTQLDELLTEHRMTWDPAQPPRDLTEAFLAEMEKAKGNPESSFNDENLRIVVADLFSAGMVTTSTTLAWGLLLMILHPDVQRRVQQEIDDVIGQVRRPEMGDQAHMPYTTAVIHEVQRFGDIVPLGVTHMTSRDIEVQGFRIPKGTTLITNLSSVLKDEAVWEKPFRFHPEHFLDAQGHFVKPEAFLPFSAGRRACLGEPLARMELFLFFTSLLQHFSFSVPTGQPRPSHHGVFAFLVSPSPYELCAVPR

[13] = DRD fibroblast viability loss – cell-based, non-viral oncogenic, luminescence, dose response (AID 1934); type: functional; settings: Homo sapiens
[14] = tested on: BJ; assay: cells; type: functional, cell-based; settings: Homo sapiens
[15] = target: T4, High affinity choline transporter 1 (Homo sapiens, UniProt Q9GZV3); assay: human choline transporter blockers, potency – cell-based, 5-point CRC, membrane potential dye, dose response (AID 504840); type: functional
T4 sequence (Q9GZV3 whole entry): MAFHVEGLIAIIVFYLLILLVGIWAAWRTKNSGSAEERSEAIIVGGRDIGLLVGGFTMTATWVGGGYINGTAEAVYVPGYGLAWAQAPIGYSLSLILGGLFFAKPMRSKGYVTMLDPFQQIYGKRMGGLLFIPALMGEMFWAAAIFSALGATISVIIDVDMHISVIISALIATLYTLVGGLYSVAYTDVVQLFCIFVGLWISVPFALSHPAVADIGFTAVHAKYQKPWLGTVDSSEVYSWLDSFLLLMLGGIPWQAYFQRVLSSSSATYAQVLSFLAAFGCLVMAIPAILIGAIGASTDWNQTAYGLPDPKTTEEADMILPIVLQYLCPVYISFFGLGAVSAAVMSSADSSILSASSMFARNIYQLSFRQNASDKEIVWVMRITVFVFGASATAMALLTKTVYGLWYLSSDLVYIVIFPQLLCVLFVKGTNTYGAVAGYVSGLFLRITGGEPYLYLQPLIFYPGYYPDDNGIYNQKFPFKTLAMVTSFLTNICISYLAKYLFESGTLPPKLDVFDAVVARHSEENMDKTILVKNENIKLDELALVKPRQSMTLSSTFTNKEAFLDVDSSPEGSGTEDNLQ

SMILES: Cc1csc(NC(=O)c2ccco2)n1
- EC50 [1]: 20.1 µM (active)
- EC50 [2]: > 112 µM (not active)

SMILES: CSC1=NSC2=NC(=O)/C(=C\c3c[nH]c4ccccc34)C(=N)N12
- EC50 [3]: > 150 µM (not active)
- EC50 [4]: > 150 µM (not active)
- EC50 [5]: > 300 µM (inconclusive)
- EC50 [6]: 1.95 µM (active)
- EC50 [7]: 17.9 µM (inconclusive)
- IC50 [8]: > 100 µM (active)

SMILES: COc1ccccc1C(=O)N1CCN=C1SCc1cccnc1
- AC50 [9]: 9 nM (active)

SMILES: CCN(CC)c1ccc2c(c1)OC(N)=C(C#N)C2c1cccnc1 (configuration not stated)
- EC50 [10]: 0.368 µM (inconclusive)
- EC50 [11]: 0.396 µM (inconclusive)
- AC50 [12]: 15.8 µM (inconclusive)
- EC50 [13]: 0.347 µM (active)
- EC50 [14]: 0.341 µM (inconclusive)

SMILES: CCOc1ccc(/C=C/c2nc(O)nc(O)c2[N+](=O)[O-])cc1
- IC50 [8]: 45.9 µM (active)

SMILES: COc1cc(C(=O)NCC(=O)N2CCN(S(=O)(=O)c3cc(C)ccc3C)CC2)cc(OC)c1OC
- EC50 [10]: 13.4 µM (active)
- EC50 [11]: 16.3 µM (active)
- EC50 [13]: 14.5 µM (active)
- EC50 [14]: 31.8 µM (active)

SMILES: CCOC(=O)Cc1sc(N)nc1C
- EC50 [1]: > 112 µM (not active)
- EC50 [2]: > 112 µM (not active)

SMILES: Cc1cccc(-c2cnn(-c3cccc([N+](=O)[O-])c3)c2N)c1
- AC50 [9]: 287 nM (active)

SMILES: COc1ccc(/C=C2/C(=O)NC(=O)N(c3ccccc3)C2=O)cc1CN1C(=O)c2ccccc2C1=O
- IC50 [8]: 73.9 µM (active)

SMILES: CCOC(=O)N1CCN(C(=O)CCCN2C(=O)CSc3nc(C)cc(C)c32)CC1
- EC50 [1]: > 112 µM (not active)
- EC50 [2]: > 112 µM (not active)

SMILES: CCOc1cccc2cc(C(=O)NCc3cccnc3)c(=O)oc12
- EC50 [1]: > 112 µM (not active)
- EC50 [2]: > 112 µM (not active)

SMILES: O=C(CCNS(=O)(=O)c1ccccc1C(F)(F)F)N1CCN(c2ccccc2O)CC1
- AC50 [9]: 5510 nM (active)

SMILES: COc1ccc(C(=O)N2CCCCCC2)cc1OC1CCN(C(C)C)CC1
- IC50 [15]: 13.9 µM (active)

SMILES: Cc1cccc(C(=O)Nc2nnc(-c3ccncc3)o2)c1
- AC50 [9]: 2350 nM (active)

SMILES: COc1cc(/C=N/c2cccc(C)c2)c(O)c([N+](=O)[O-])c1
- IC50 [15]: 13.2 µM (active)

SMILES: CCCc1cc(C(=O)NN=C(S)NC(C)c2ccccc2)cs1 (configuration not stated)
- IC50 [15]: 12.6 µM (active)
